PubChem BioAssay AID1963852 (Molecular Pharmacology Branch, DTP, NCI, 2024)

Tested on: 282377-053-R-J1-PDC complex spheroid viability
Assay: Anticancer human tumor 282377-053-R-J1-PDC patient-derived colon adenocarcinoma cell line growth inhibition [POLQ]
Details: for IC50: curve of first compound; for viability, T/C: stronger effect = lower value
Experimental: Multicellular complex tumor spheroid response to Polymerase (POL) inhibitors (novobiocin, ART-558, RP6685) in combination with a variety of drugs and investigational agents in selected tumor cell lines
The POL inhibitors (novobiocin, ART-558, and RP6685) were evaluated both individually and in combination with standard of care and investigational anticancer small molecules within a complex spheroid model of solid tumors. . Complex spheroids include a stromal component modeled by human endothelial cells (HUVEC) and fibroblasts modeled by human mesenchymal stem cells (MSCs). The concentration ranges selected for each drug and investigational agent were based upon clinically achievable concentrations if the clinical Cmax of the agent was known.
Compounds. The drugs and investigational agents: novobiocin (NSC847541), ART-558 (NSC835418), RP-6685 (NSC848927), peposertib (NSC802822), ceralasertib (NSC780249), elimusertib (NSC800525), camonsertib (NSC841442), AZD-1390 (NSC803789), olaparib (NSC753686), talazoparib (NSC767125), rucaparib (NSC756644), sotorasib (NSC818433), MRTX-1133 (NSC836407), SN-38 (NSC673596), topotecan (NSC609699), epotoside (NSC141540), doxorubicin (NSC123127), gemcitabine (NSC613327), 5-fluorouracil (NSC19893), paclitaxel (NSC125973), vemurafenib (NSC761431), MSA-2 (NSC828583), SN-011 (NSC837082), adavosertib (NSC754352), prexasertib (NSC758257), carboplatin (NSC241240) and oxaliplatin (NSC266046), were obtained from the National Cancer Institute (NCI) Developmental Therapeutics Program Chemical Repository (21). The FDA-approved anticancer drug set is available from the Developmental Therapeutics Program at https://dtp.cancer.gov/organization/dscb/obtaining/. […] The stock solutions were prepared in dimethyl sulfoxide (DMSO, Sigma-Aldrich, St. Louis, MO, cat. D2650), except for the platinum compounds which were prepared in saline (Quality Biological, Gaithersburg, MD, cat. 114-055-101), at 800-fold the tested concentration and stored at -70 degrees C prior to their use. All drugs and investigational agents were tested over a range starting from a high concentration at or near the clinical Cmax and decreasing in half-log increments. If the clinical Cmax for an agent had not been determined, the highest concentration tested was 10 microM, except for SN-38, which was tested at a high concentration of 1 microM.
Cell Culture. All cells were maintained in an incubator at 37 degrees C and 5% CO2 with 95% humidity. The PDC lines were cultured according to standard operating procedures established by the NCI PDMR (https://pdmr.cancer.gov). Table 3 of the manuscript, lists the cell lines along with the number of the three cell types plated to form the mct-spheroids and media for tumor cell growth. After thawing, all PDC lines, except 997537-175-T-J1-PDC and 415267-285-R-J2-PDC, were cultured in Matrigel-coated flasks prepared with a working solution of 1X Ham's F-12 nutrient mix, without supplementation (Thermo Fisher Scientific, cat. 11765054), 100 U/mL penicillin-streptomycin (Thermo Fisher Scientific, cat. 15140122), and 2.5% Matrigel (Corning Inc., Corning, NY, cat. 354248) for the first three passages. The two PDC lines 997537-175-T-J1-PDC and 415267-285-R-J2-PDC were cultured on uncoated flasks. The 857933-349-R-J2-PDC line was cultured in 6C/Colon 1B media containing advanced DMEM/F-12 (Thermo Fisher Scientific, cat. 12634028), 10 mM HEPES (Thermo Fisher Scientific, cat. 15630080), 1X GlutaMAX supplement (Thermo Fisher Scientific, cat. 35050061), 0.1 mg/mL primocin (InvivoGen, San Diego, CA, cat. ant-pm-2), 10% defined fetal bovine serum, heat inactivated (HyClone Laboratories Inc., Logan, UT, cat. SH30070.03HI), 50% L-WRN conditioned media (ATCC, cat. CRL-3276), 1.25 mM N-Acetyl-L-cysteine (Sigma-Aldrich, cat. A9165), 10 mM nicotinamide (Sigma-Aldrich, cat. N0636), 1X B-27 supplement (Thermo Fisher Scientific, cat. 17504044), 1X N-2 supplement (Thermo Fisher Scientific, cat. […]

[1] = second compound 0.0316 µM, first compound 0.0316 µM
[2] = second compound 0.0316 µM, first compound 0.1 µM
[3] = second compound 0.0316 µM, first compound 0.316 µM
[4] = second compound 0.0316 µM, first compound 1 µM
[5] = second compound 0.0316 µM, first compound 3.16 µM
[6] = second compound 0.0316 µM, first compound 10 µM
[7] = second compound 0.1 µM, first compound 0.0316 µM
[8] = second compound 0.1 µM, first compound 0.1 µM
[9] = second compound 0.1 µM, first compound 0.316 µM
[10] = second compound 0.1 µM, first compound 1 µM
[11] = second compound 0.1 µM, first compound 3.16 µM
[12] = second compound 0.1 µM, first compound 10 µM
[13] = second compound 0.316 µM, first compound 0.0316 µM
[14] = second compound 0.316 µM, first compound 0.1 µM
[15] = second compound 0.316 µM, first compound 0.316 µM
[16] = second compound 0.316 µM, first compound 1 µM
[17] = second compound 0.316 µM, first compound 3.16 µM
[18] = second compound 0.316 µM, first compound 10 µM
[19] = second compound 1 µM, first compound 0.0316 µM
[20] = second compound 1 µM, first compound 0.1 µM
[21] = second compound 1 µM, first compound 0.316 µM
[22] = second compound 1 µM, first compound 1 µM
[23] = second compound 1 µM, first compound 3.16 µM
[24] = second compound 1 µM, first compound 10 µM
[25] = second compound 3.16 µM, first compound 0.0316 µM
[26] = second compound 3.16 µM, first compound 0.1 µM
[27] = second compound 3.16 µM, first compound 0.316 µM
[28] = second compound 3.16 µM, first compound 1 µM
[29] = second compound 3.16 µM, first compound 3.16 µM
[30] = second compound 3.16 µM, first compound 10 µM
[31] = second compound 10 µM, first compound 0.0316 µM
[32] = second compound 10 µM, first compound 0.1 µM
[33] = second compound 10 µM, first compound 0.316 µM
[34] = second compound 10 µM, first compound 1 µM
[35] = second compound 10 µM, first compound 3.16 µM
[36] = second compound 10 µM, first compound 10 µM
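Note: spheroids exposed to compounds for seven days.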
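Throughout, for viability, T/C: 100% = DMSO vehicle control viability.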

COc1cc(C2c3cc4c(cc3C(OC3OC5COC(C)OC5C(O)C3O)C3COC(=O)C23)OCO4)cc(OC)c1O (centres undefined) + COC1C(OC(N)=O)C(O)C(Oc2ccc3c(O)c(NC(=O)c4ccc(O)c(CC=C(C)C)c4)c(=O)oc3c2C)OC1(C)C
IC50 (second compound 0.0316 µM): > 10 µM | IC50 (second compound 0.1 µM): > 10 µM | IC50 (second compound 0.316 µM): 9.29 µM | IC50 (second compound 1 µM): 8.39 µM | IC50 (second compound 3.16 µM): > 10 µM | IC50 (second compound 10 µM): > 10 µM | viability, T/C [1]: 95.7% | viability, T/C [2]: 111% | viability, T/C [3]: 97.1% | viability, T/C [4]: 80% | viability, T/C [5]: 78.3% | viability, T/C [6]: 49.5% | viability, T/C [7]: 75.8% | viability, T/C [8]: 92.8% | viability, T/C [9]: 102% | viability, T/C [10]: 90.7% | viability, T/C [11]: 67.9% | viability, T/C [12]: 53.5% | viability, T/C [13]: 101% | viability, T/C [14]: 80.1% | viability, T/C [15]: 85.3% | viability, T/C [16]: 77% | viability, T/C [17]: 73.8% | viability, T/C [18]: 46% | viability, T/C [19]: 89% | viability, T/C [20]: 86.8% | viability, T/C [21]: 86% | viability, T/C [22]: 81.1% | viability, T/C [23]: 77.3% | viability, T/C [24]: 45% | viability, T/C [25]: 76.5% | viability, T/C [26]: 96.1% | viability, T/C [27]: 97.2% | viability, T/C [28]: 89.8% | viability, T/C [29]: 70.1% | viability, T/C [30]: 51.7% | viability, T/C [31]: 87.4% | viability, T/C [32]: 83.2% | viability, T/C [33]: 118% | viability, T/C [34]: 68.5% | viability, T/C [35]: 70.3% | viability, T/C [36]: 53%

O=c1[nH]cc(F)c(=O)[nH]1 + COC1C(OC(N)=O)C(O)C(Oc2ccc3c(O)c(NC(=O)c4ccc(O)c(CC=C(C)C)c4)c(=O)oc3c2C)OC1(C)C
IC50 (second compound 0.0316 µM): > 10 µM | IC50 (second compound 0.1 µM): > 10 µM | IC50 (second compound 0.316 µM): > 10 µM | IC50 (second compound 1 µM): > 10 µM | IC50 (second compound 3.16 µM): > 10 µM | IC50 (second compound 10 µM): > 10 µM | viability, T/C [1]: 112% | viability, T/C [2]: 89% | viability, T/C [3]: 104% | viability, T/C [4]: 92% | viability, T/C [5]: 74.6% | viability, T/C [6]: 66.9% | viability, T/C [7]: 109% | viability, T/C [8]: 107% | viability, T/C [9]: 90.9% | viability, T/C [10]: 89.7% | viability, T/C [11]: 72.1% | viability, T/C [12]: 71% | viability, T/C [13]: 112% | viability, T/C [14]: 125% | viability, T/C [15]: 97.1% | viability, T/C [16]: 81.5% | viability, T/C [17]: 77.7% | viability, T/C [18]: 71.1% | viability, T/C [19]: 112% | viability, T/C [20]: 97.9% | viability, T/C [21]: 94.4% | viability, T/C [22]: 86.4% | viability, T/C [23]: 79.6% | viability, T/C [24]: 71.2% | viability, T/C [25]: 102% | viability, T/C [26]: 101% | viability, T/C [27]: 88.1% | viability, T/C [28]: 100% | viability, T/C [29]: 80.7% | viability, T/C [30]: 66.8% | viability, T/C [31]: 105% | viability, T/C [32]: 103% | viability, T/C [33]: 115% | viability, T/C [34]: 98% | viability, T/C [35]: 82.2% | viability, T/C [36]: 63.5%
